Read-outs that look alike come from different tables or passages of the source.
Experiments:
HUVEC cells = assay: Transfection of HUVEC cells with ODN1 (Example 9); assay type: cell-based, human; details: for % HUVEC transfected: 10% serum, 5 h, 500 pmole ODN1
Text: (§1) Preparation of lipid-nucleic acid complexes and cell transfection.

L7 cells = assay: Transfection of L7 cells with ODN1 (Example 11); assay type: cell-based, murine; details: for % L7 transfected: 20% FBS, 18 h, 250 pmole ODN1
Text: as §1

CV-1 cells [1] = system: CV-1 cells
Method: (§4) Preparation of lipid-nucleic acid complexes and cell transfection. Lipids were prepared for complexing with nucleic acids by drying a cationic lipid-colipid mixture in CHCl3 under argon. The molar ratio of cationic lipid to colipid was adjusted by adding appropriate amounts of each lipid in CHCl3 together prior to drying. Usually 10 mL of water was added to a 100 mL round bottom flask containing a dried film of lipid and colipid. The lipids consisted of a mixture of an invention cationic lipid and the colipid DOPE (dioleylphosphatidylethanolamine). Sterile-filtered water or a low ionic strength aqueous buffer such as physiological saline, TE (10 mM tris, 1 mM EDTA, pH 7-8) or Ringer's solution was then added to the dried lipids to obtain a lipid suspension at 1 mg lipid/mL followed by a 10 minute bath sonication (Ultra Sonik 100, NEY) at room temperature to suspend the lipids in the flask. The suspended lipids (10 mL) were then sonicated 5 times for 15 seconds per sonication at 0°-4° C. with about 30-60 seconds between pulses. Sonication was usually conducted in a 15 mL polypropylene culture tube. A probe sonicator (Sonifier 250, Branson Ultrasonics) was used at maximum power for the ice bath sonication and for each 15 second pulse. The lipid suspension was optionally filtered or centrifuged (2000 rpm, 10 minutes at 0-4° C.) to remove large particulate matter and the resulting lipid suspensions were kept at 4° C. until used.
(§5) Lipid nucleic acid complexes were prepared by mixing (a) 10% v/v (usually 100 μL) oligonucleotide in Optimem™ (Bethesda Research Labs, Inc.) at room temperature (about 19°-24° C.) with (b) 10% v/v lipid suspension in Optimem™ at room temperature and allowing the mixture to stand for about 15 minutes, followed by adding (c) 80% v/v Optimem™ without serum or 80% v/v tissue culture medium (Modified Essential Medium (MEM), Dulbecco's Modified Eagle's Medium (DMEM), etc. containing 0-80% fetal bovine serum (Hyclone, Inc.). The lipid and nucleic acid solutions could also be prepared using DMEM without serum, a low ionic strength (less than about 200 mM total ion concentration) aqueous medium lacking phosphate (TE, etc) or water in place of Optimem™. Typically, 100 μL each of Optimem™ containing oligonucleotide (100-500 pmole) and Optimem™ containing added lipid was mixed with 800 μL of serum free Optimem™ or with 800 μL of tissue culture medium containing 10-80% FBS. Generally, 5 or 10 μL (5 or 10 μg) of lipid was added to 95 or 90 μL of Optimem™ to give a final 1 mL transfection preparation containing 5 or 10 μg of lipid and 250 pmole of oligonucleotide. The lipid-nucleic acid mixture was held at room temperature for about 15 min hours before adding medium to give the final transfection preparation volume (usually 1 mL) and warming to 37° C. and immediately applying onto the cells. The transfection mixture was left on the cells for 2 to 24 hours (at 37° C.), with a 6 hour time period commonly used.
(§6) Cells were typically transfected using 1 mL of transfection mixture per well in a 6-well plate. Cells at about 50-100% confluency were used. […] Typical transfections with the invention lipids used cells at about 60-100% confluency.

cells [2] = assay: Amount of fluorescently labeled oligonucleotide delivered versus commercially available lipids; assay type: cell-based; details: observed fluorescence intensity, estimated
Text: The difference in transfection efficiency between lipids described herein and commercially available lipids is usually most pronounced when the transfections are done in the presence of medium containing serum. The amount of polyanion delivered into cells was estimated to be about 2- to 100-fold greater for lipids 30, 34 and 35 based on the observed fluorescence intensity of transfected cells after transfection using a fluorescently labeled oligonucleotide. The cationic lipids described herein also transfect some cell types that are not detectably transfected by commercial lipids, particularly where the transfection is conducted in the presence of serum.

A10 cells = assay: Transfection of A10 cells with ODN1 (Example 6); assay type: cell-based, rat; details: 18 h, 10% FBS; for cells transfected A10: 15 μg/mL lipid, 1:1 DOPE, 250 pmole ODN1; for toxicity to A10 cells / transfection of A10 in the presence of serum: in words
Text: as §1
Cells at about 50-100% confluency were used.

SK-OV-3 cells = assay: Transfection of SK-OV-3 cells with ODN1 in 40% or 80% FBS (Example 7); assay type: cell-based, human; details: for % SK-OV-3 transfected: 18 h, 500 pmole ODN1, 1:1 DOPE
Text: as §1
80% serum approximates the serum protein and ion conditions that exist in vivo in mammalian circulation. 30 is thus suitable for transfecting cells under physiological conditions.

CV-1 cells [3] = assay: Transfection of CV-1 cells with 30/ODN1 (Example 8); assay type: cell-based, African green monkey; details: for % CV-1 transfected: 18 h, 500 pmole ODN1
Text: as §1
(§2) The toxicity noted for HL60 cells may have been at least partly due to the high level of ODN1 that was delivered to the cells.

cells [4] = assay: Transfection with filtered preparations; assay type: cell-based; details: 1:1 DOPE, sonicated
Method: The invention cationic lipids 30 or 34 and DOPE colipid (1:1) were prepared by sonication and then filtered using 200, 100 or 50 nm filters to obtain particles less than about 200 nm in diameter, less than about 100 nm and less than about 50 nm. […] The 50 nm filtered preparations were about 40-50% as efficient as the preparations containing larger particles. The size of the particles or miscelles in a given preparation will vary depending on the preparation method. Sonicating cationic lipid-colipid mixtures will provide smaller miscelles and vortexing will provide larger miscelles (Felgner J. Biol. Chem. (1994) 269:2550-2561). Such miscelles are believed to transfer the polyanion into the cytoplasm of a eukaryotic or prokaryotic cell by pinocytosis, endocytosis and/or by direct fusion with the plasma membrane.

ECl cells = assay: Transfection of ECl cells with ODN1 (Example 10); assay type: cell-based, human; details: for % ECl transfected: DMEM
Text: as §1

NHEK cells = assay: Transfection of NHEK cells with ODN1 (Example 10); assay type: cell-based, human; details: for % NHEK transfected: DMEM, 24 h
Text: as §1

HL60 cells = assay: Transfection of HL60 cells with 30/ODN1 (Example 8); assay type: cell-based, human; details: for % HL60 transfected: 500 pmole ODN1
Text: as §1, §2

CV-1 cells [5] = assay: Transfection of CV-1 cells with ODN1 and toxicity (Example 6); details: 18 h, 10% FBS; for cells transfected CV-1: 15 μg/mL lipid, 1:1 DOPE, 250 pmole ODN1
Method: as §4, §5, §6

CV-1 cells [6] = assay: Transfection of CV-1 cells with ODN1 and toxicity (Example 22); assay type: cell-based, African green monkey; details: 2:1 DOPE, 6 h, 10% FBS, 250 pmole ODN1
Method: (§3) Lipids 35, 52, 54 and 55 were each prepared using a 2:1 lipid:DOPE molar ratio as follows. Two molar equivalents of each lipid in CHCl3 and one equivalent of DOPE in CHCl3 was dried under reduced pressure by rotovap at room temperature. Deionized water was then added to give 1 mg/mL of total lipid. 10 mL of water containing 10 mg of lipid was vortexed for 5 minutes in a 100 mL round bottom flask. 2 mL aliquots were then used to prepare lipid suspensions for complexing with ODN1. Each preparation was obtained by 6 cycles of freezing on dry ice and thawing in a 37° C. water bath.

cdc-2 kinase = assay: cdc-2 antisense oligonucleotide analog transfection, Western blot (Example 22); assay type: cell-based, African green monkey; details: 30 nM cdc-2 antisense oligonucleotide analog, 2.5 and 5.0 μg lipid
Text: The oligonucleotide contained 5-(1-propynyl)cytosine in place of cytosine and 5-(1-propynyl)uracil in place of uracil. A control oligonucleotide analog having a mismatched base sequence was also used to check for any non-specific effect on cdc-2 kinase levels in the transfected cells caused by the oligonucleotide analog. A control containing only lipid was also used as a control. […] Protein levels were examined by Western blot analysis.

[7] = Transfection of CV-1 cells with ODN1 and toxicity (Example 22); assay type: cell-based, African green monkey; details: monkey, cv-1 cells; 10.0 μg lipid
Method: as §3

[8] = fluorescence observation, in words

CCCCCCCCCCCCCCCCCCN(CCCCCCCCCCCCCCCCCC)C(=O)CNC(=O)[C@@H](N)CCCN.Cl.Cl [Compound 30]
% HUVEC transfected (HUVEC cells; 5 μg/mL lipid): 1% | % HUVEC transfected (HUVEC cells; 10 μg/mL lipid): 5% | transfection of HUVEC (HUVEC cells; in words): modest efficiency | % L7 transfected (L7 cells; 2.5 μg/mL lipid): 10% | % L7 transfected (L7 cells; 5 μg/mL lipid): 30% | % L7 transfected (L7 cells; 10 μg/mL lipid): 60% | toxicity L7 (L7 cells; in words): little or no toxicity | transfection of L7 (L7 cells; in words): efficiently transfected | toxicity to CV-1 cells (CV-1 cells [1]): little or no toxicity | amount of polyanion delivered into cells relative to commercially available lipids (cells [2]): 2- to 100 fold | cells transfected A10 (A10 cells): 95 | toxicity to A10 cells (A10 cells): little or no toxicity | transfection of A10 in the presence of serum (A10 cells): efficiently transfected | % SK-OV-3 transfected (SK-OV-3 cells; 40% serum): 76% | % SK-OV-3 transfected (SK-OV-3 cells; 80% serum): 72% | transfection of SK-OV-3 in the presence of serum (SK-OV-3 cells; in words): efficiently transfected | % CV-1 transfected (CV-1 cells [3]; 2.5 μg/mL, 10% serum): 90% | % CV-1 transfected (CV-1 cells [3]; 5 μg/mL, 10% serum): > 95% | % CV-1 transfected (CV-1 cells [3]; 10 μg/mL, 10% serum): > 95% | % CV-1 transfected (CV-1 cells [3]; 15 μg/mL, 10% serum): > 95% | % CV-1 transfected (CV-1 cells [3]; 20 μg/mL, 50% serum): 95% | % CV-1 transfected (CV-1 cells [3]; 20 μg/mL, 80% serum): 90% | transfection of CV-1 at reduced levels of lipid (CV-1 cells [3]; in words): efficiently transfected | transfection efficiency of 50 nm filtered preparations relative to larger particles (cells [4]; 50 nm filter): 40-50% | transfection efficiency of 200 nm or 100 nm filtered preparations (cells [4]; in words): the most efficient (and equally efficient) | % ECl transfected (ECl cells; 2.5 μg/mL lipid, 5 hour transfection): 10% | % ECl transfected (ECl cells; 5 μg/mL lipid, 5 hour transfection): 25-30% | % ECl transfected (ECl cells; 5 μg/mL lipid, 6 hour transfection): 30% | % ECl transfected (ECl cells; 10 μg/mL lipid, 5 hour transfection): 51% | % ECl transfected (ECl cells; 10 μg/mL lipid, 6 hour transfection): 43% | % ECl transfected (ECl cells; 15 μg/mL lipid, 5 hour transfection): 70% | % ECl transfected (ECl cells; 20 μg/mL lipid, 6 hour transfection): 20% | level of ODN1 delivered into ECl cells (ECl cells; [8]): high levels | toxicity ECl (ECl cells; in words): little to moderate toxicity | transfection of ECl (ECl cells; in words): efficiently transfected | % NHEK transfected (NHEK cells; 1 μg/mL lipid, second series): 25% | % NHEK transfected (NHEK cells; 2.5 μg/mL lipid, second series): 50% | % NHEK transfected (NHEK cells; 5 μg/mL lipid, first series): 80-90% | % NHEK transfected (NHEK cells; 5 μg/mL lipid, second series): 60-70% | % NHEK transfected (NHEK cells; 10 μg/mL lipid, first series): 70% | % NHEK transfected (NHEK cells; 10 μg/mL lipid, second series): 60-70% | % NHEK transfected (NHEK cells; 20 μg/mL lipid, first series): 60% | level of ODN1 delivered into NHEK cells (NHEK cells; [8]): high levels | toxicity NHEK (NHEK cells; in words): little to moderate toxicity | transfection of NHEK (NHEK cells; in words): efficiently transfected | % HL60 transfected (HL60 cells; 20 μg/mL, 0% serum, 5 h): 77% | % HL60 transfected (HL60 cells; 20 μg/mL, 10% serum, 5 h): 76% | toxicity HL60 (HL60 cells; 20 μg/mL, 10% serum, 5 h, footnote): significant toxicity noted | transfection of HL60 (HL60 cells; in words): efficiently transfected | cells transfected CV-1 (CV-1 cells [5]): 85 | transfection of CV-1 in the presence of serum (CV-1 cells [5]; in words): efficiently transfected

CCCCCCCCCCCCCCCCCCN(CCCCCCCCCCCCCCCCCC)C(=O)CCC(=O)NCCCN1CCN(CCCN)CC1 [Compound 38]
cells transfected A10 (A10 cells): 85 | toxicity to A10 cells (A10 cells): little or no toxicity | transfection of A10 in the presence of serum (A10 cells): efficiently transfected | % SK-OV-3 transfected (SK-OV-3 cells; 40% serum): < 10% | % SK-OV-3 transfected (SK-OV-3 cells; 80% serum): 0% | cells transfected CV-1 (CV-1 cells [5]): 70 | toxicity to CV-1 cells (CV-1 cells [5]; in words): little or no toxicity | transfection of CV-1 in the presence of serum (CV-1 cells [5]; in words): efficiently transfected

CCCCCCCCCCCCNC(=O)CCC(=O)NCCCN1CCN(CCCN)CC1 [Compound 44]
cells transfected A10 (A10 cells): < 10 | cells transfected CV-1 (CV-1 cells [5]): < 5

CCCCCCCCCCCCCCN(CCCCCCCCCCCCCC)C(=O)CNC(=O)C(N)CCCNC(=N)NC(C)=O.Cl.Cl (centres unmarked) [Compound 52]
% cells transfected (CV-1 cells [6]; 1 μg lipid): 30-40% | % cells transfected (CV-1 cells [6]; 2.5 μg lipid): 60% | % cells transfected (CV-1 cells [6]; 5.0 μg lipid): 60% | % cells transfected (CV-1 cells [6]; 10.0 μg lipid): 60%

CCCCCCCCCCCCCCN(CCCCCCCCCCCCCC)C(=O)CNC(=O)C(N)CCCNC(=N)NC(=O)OC(C)C.Cl.Cl (centres unmarked) [Compound 53]
cdc-2 protein levels (cdc-2 kinase): efficiently reduced cdc-2 protein levels | % cells transfected (CV-1 cells [6]; 1 μg lipid): 30% | % cells transfected (CV-1 cells [6]; 2.5 μg lipid): 70% | % cells transfected (CV-1 cells [6]; 5.0 μg lipid): 100% | % cells transfected (CV-1 cells [6]; 10.0 μg lipid): 60%

CCCCCCCCCCCCCCN(CCCCCCCCCCCCCC)C(=O)CNC(=O)C(N)CCCNC(=N)NC(=O)C(C)(C)C.Cl.Cl (centres unmarked) [Compound 54]
% cells transfected (CV-1 cells [6]; 1 μg lipid): 10-20% | % cells transfected (CV-1 cells [6]; 2.5 μg lipid): 30-40% | % cells transfected (CV-1 cells [6]; 5.0 μg lipid): 70-80% | % cells transfected (CV-1 cells [6]; 10.0 μg lipid): 40%

CCCCCCCCCCCCCCN(CCCCCCCCCCCCCC)C(=O)CNC(=O)[C@@H](N)CCCNC(=N)N [Compound 55]
cdc-2 protein levels (cdc-2 kinase): efficiently reduced cdc-2 protein levels | cytotoxicity at 6 h [7]: > 40% | % cells transfected (CV-1 cells [6]; 1 μg lipid): 40% | % cells transfected (CV-1 cells [6]; 2.5 μg lipid): 75% | % cells transfected (CV-1 cells [6]; 5.0 μg lipid): 100% | % cells transfected (CV-1 cells [6]; 10.0 μg lipid): 40%

Reference: patent publication US5705693A, “Cationic lipids” (Gilead Sciences, Inc., priority 1995, dated 1998)
